How the values were obtained:
Assay in all cases: relative viability (nuclei count vs DMSO), 5 days (fraction); higher = more cells survive
Seliciclib + Navitoclax = compound: CC[C@H](CO)Nc1nc(NCc2ccccc2)c2ncn(C(C)C)c2n1 [Seliciclib] + CC1(C)CCC(c2ccc(Cl)cc2)=C(CN2CCN(c3ccc(C(=O)NS(=O)(=O)c4ccc(N[C@H](CCN5CCOCC5)CSc5ccccc5)c(S(=O)(=O)C(F)(F)F)c4)cc3)CC2)C1 [Navitoclax] (partner 0.5 µM)
In short: (§1)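 Cells from lung cancer lines were seeded into 1536-well plates and, one day later, dosed by pin tool. Treatments were either a single drug or a fixed dose of an anchor drug with five library-drug doses (not always all listed) in √10 steps. After 5 days, nuclei were stained in a one-step fixation (final 0.05% Triton X-100, 1% formaldehyde, 1 ug/ml Hoechst) and counted on 4× images, and relative viability is the treated-to-vehicle nuclei ratio, as the median of duplicate plates.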

Seliciclib + Alpelisib = compound: CC[C@H](CO)Nc1nc(NCc2ccccc2)c2ncn(C(C)C)c2n1 [Seliciclib] + Cc1nc(NC(=O)N2CCC[C@H]2C(N)=O)sc1-c1ccnc(C(C)(C)C(F)(F)F)c1 [Alpelisib] (partner 2 µM)
In short: as §1

Seliciclib + Linsitinib = compound: CC[C@H](CO)Nc1nc(NCc2ccccc2)c2ncn(C(C)C)c2n1 [Seliciclib] + C[C@]1(O)C[C@@H](c2nc(-c3ccc4ccc(-c5ccccc5)nc4c3)c3c(N)nccn32)C1 [Linsitinib] (partner 1 µM)
In short: as §1

Seliciclib + Vorinostat = compound: CC[C@H](CO)Nc1nc(NCc2ccccc2)c2ncn(C(C)C)c2n1 [Seliciclib] + O=C(CCCCCCC(=O)Nc1ccccc1)NO [Vorinostat] (partner 1 µM)
In short: as §1

Row | Cell Line | relative viability (Seliciclib + Navitoclax; first compound 0.08 µM) | relative viability (Seliciclib + Navitoclax; first compound 0.253 µM) | relative viability (Seliciclib + Navitoclax; first compound 0.8 µM) | relative viability (Seliciclib + Navitoclax; first compound 2.53 µM) | relative viability (Seliciclib + Navitoclax; first compound 8 µM) | relative viability (Seliciclib + Alpelisib; first compound 0.08 µM) | relative viability (Seliciclib + Alpelisib; first compound 0.253 µM) | relative viability (Seliciclib + Alpelisib; first compound 0.8 µM) | relative viability (Seliciclib + Alpelisib; first compound 2.53 µM) | relative viability (Seliciclib + Alpelisib; first compound 8 µM) | relative viability (Seliciclib + Linsitinib; first compound 0.08 µM) | relative viability (Seliciclib + Linsitinib; first compound 0.253 µM) | relative viability (Seliciclib + Linsitinib; first compound 0.8 µM) | relative viability (Seliciclib + Linsitinib; first compound 2.53 µM) | relative viability (Seliciclib + Linsitinib; first compound 8 µM) | relative viability (Seliciclib + Vorinostat; first compound 0.08 µM) | relative viability (Seliciclib + Vorinostat; first compound 0.253 µM) | relative viability (Seliciclib + Vorinostat; first compound 0.8 µM) | relative viability (Seliciclib + Vorinostat; first compound 2.53 µM) | relative viability (Seliciclib + Vorinostat; first compound 8 µM)
1 | HCC-827 | 1 | 1.03 | 1.01 | 0.976 | 0.953 | 1.01 | 1.01 | 1 | 1.04 | 0.784 | 0.927 | 1 | 0.892 | 0.919 | 0.845 | 0.845 | 0.951 | 0.912 | 0.77 | 0.756
2 | NCI-H2228 | 0.562 | 0.447 | 0.913 | 0.735 | 0.653 | 0.639 | 0.69 | 0.936 | 0.658 | 0.63 | 0.848 | 0.491 | 0.612 | 0.564 | 0.57 | 0.585 | 0.521 | 0.58 | 0.586 | 0.335
3 | NCI-H1793 | 0.432 | 0.335 | 0.326 | 0.511 | 0.313 | 0.641 | 0.68 | 0.508 | 0.708 | 0.742 | 0.784 | 0.545 | 0.79 | 1.16 | 0.743 | 0.707 | 0.718 | 0.59 | 0.716 | 0.439
4 | EMC-BAC-2 | 1.13 | 1.11 | 1.1 | 1.27 | 1.09 | 0.759 | 0.731 | 0.739 | 0.774 | 0.703 | 0.835 | 0.805 | 0.775 | 0.894 | 0.754 | 0.454 | 0.414 | 0.547 | 0.259 | 0.307
5 | NCI-H23 | 0.813 | 0.677 | 0.842 | 0.624 | 0.565 | 0.612 | 0.447 | 0.603 | 0.504 | 0.562 | 0.616 | 0.392 | 0.505 | 0.599 | 0.419 | 0.648 | 0.554 | 0.618 | 0.367 | 0.499
6 | RERF-LC-KJ | 0.759 | 0.673 | 0.812 | 0.804 | 0.651 | 0.745 | 0.761 | 0.814 | 0.973 | 0.792 | 0.869 | 0.814 | 0.855 | 0.909 | 0.883 | 0.698 | 0.641 | 0.661 | 0.55 | 0.439
7 | NCI-H1944 | 0.987 | 1.01 | 0.946 | 1.11 | 0.871 | 0.813 | 0.859 | 0.77 | 0.904 | 0.666 | 1.08 | 1.19 | 1.09 | 1.17 | 0.904 | 0.562 | 0.527 | 0.466 | 0.552 | 0.338
8 | LC-2-ad | 0.419 | 0.505 | 0.379 | 0.494 | 0.271 | 0.852 | 0.852 | 0.4 | 0.899 | 0.635 | 0.884 | 0.94 | 0.756 | 0.827 | 0.607 | 0.7 | 0.68 | 0.671 | 0.445 | 0.528
9 | HCC-15 | 0.719 | 0.77 | 0.677 | 0.718 | 0.491 | 0.956 | 0.954 | 0.846 | 0.902 | 0.712 | 0.931 | 0.986 | 0.861 | 0.941 | 0.667 | 0.893 | 0.855 | 0.838 | 0.747 | 0.761
10 | NCI-H2405 | 0.666 | 0.71 | 0.754 | 0.717 | 0.631 | 0.718 | 0.698 | 0.642 | 0.689 | 0.729 | 0.978 | 0.962 | 0.863 | 0.941 | 0.793 | 1.06 | 1.2 | 0.98 | 0.742 | 0.739
11 | LXF-289 | 0.937 | 1.03 | 0.795 | 0.934 | 0.914 | 1.01 | 1.09 | 1.02 | 1.02 | 0.891 | 0.945 | 1.03 | 0.908 | 0.947 | 0.914 | 0.735 | 0.824 | 0.671 | 0.582 | 0.457
12 | CAL-12T | 1.25 |  | 1.04 | 1.03 | 1.06 | 1.11 |  | 0.86 | 1 | 0.946 | 0.87 | 0.977 | 0.744 | 0.742 | 0.673 | 0.583 | 0.407 | 0.788 | 0.7 | 0.625
13 | COR-L23 | 0.906 | 1.1 | 0.867 | 1.06 | 0.733 | 0.708 | 0.868 | 0.764 | 0.78 | 0.538 | 0.873 | 0.84 | 0.922 | 1.11 | 0.684 | 0.402 | 0.43 | 0.403 | 0.458 | 0.359
14 | NCI-H1755 | 0.984 | 0.997 | 0.998 | 1.04 | 0.871 | 0.924 | 0.946 | 0.908 | 0.991 | 0.892 | 0.982 | 1.02 | 0.978 | 1.02 | 0.993 | 0.654 | 0.748 | 0.696 | 0.692 | 0.637
15 | NCI-H1437 | 1.01 | 1.11 | 1.07 | 1.15 | 0.885 | 0.919 | 0.855 | 1.02 | 1.02 | 0.935 | 1.02 | 1.06 | 0.974 | 1.16 | 0.786 | 0.811 | 0.901 | 0.69 | 0.633 | 0.374
16 | NCI-H2085 | 1.13 | 1.16 | 1.14 | 1.05 | 0.965 | 0.971 | 1.19 | 0.984 | 0.926 | 0.809 | 0.808 | 0.805 | 0.928 | 0.856 | 0.763 | 0.763 | 0.762 | 0.756 | 0.74 | 0.556
